By pKd is commonly meant −log10 of the Kd, conventionally taken in molar units.

The source of these data is patent US10794898B2, “High-throughput, high-precision methods for detecting protein structural changes in living cells” (REGENTS OF THE UNIVERSITY OF MINNESOTA, priority 2014, dated 2020).

Each structure is given as a SMILES string. pKd: −log10 of the molar value. Read-outs that look alike come from different tables or passages of the source.

Data set [1] deals with T1, 2-color SERCA2a (2CS) (Canis lupus familiaris, UniProt O46674, INS508[…]).
T1 construct: expressed in transfected cells
As to the kind of experiment: Live-cell 2-color SERCA (2CS) FRET assay in fluorescence lifetime plate reader. The data set is classed as cell-based, canine. The following applies: for LOPAC library screen outcome (2CS GFP lifetime outside 3SD window): hit = lifetime change more than 3 SD from DMSO controls, repeated. From the text:
Using recombinant DNA technology, the gene for TagRFP was fused to the N-terminus of canine SERCA2a. This fusion position is in the A-domain of the pump. EGFP was fused as an intrasequence tag before residue 509 in the N-domain. The structural model presented in FIG. 1A corresponds to the isoform SERCA1a, which is 84% homologous to SERCA2a. Hou et al. evaluated several intrasequence fusion positions chosen using x-ray crystal structures of SERCA1a to identify unstructured loops and predict large relative distance changes without affecting SERCA function. (Hou et al., PLoS ONE 2012, 7, e40369). The 509 site was chosen because the labeled construct had normal SERCA activity and its intramolecular FRET signal was sensitive to SERCA structural state, as shown below.
(§1) The 96-well plate format LOPAC library was reformatted into four 384-well polystyrene mother plates (Corning, Corning, N.Y.) using a Biomek FX liquid handler (Beckman Coulter, Brea, Calif.), and diluted to 500 μM using DMSO. Column 1, 22, 23 and 24 were loaded with DMSO for in-plate no-compound controls. The LOPAC compounds were distributed in column 2 through 21. Each plate contains 64 wells of DMSO controls, and 320 wells of compounds from the LOPAC library. Black well, high-quality-glass bottom Greiner 384-well microplates (PN 781892) were selected as the assay plates for their optical clarity, low autofluorescence, and low inter-well cross-talks. Compounds (1 μL) were transferred from the mother plates into assay plates using a Mosquito HV liquid handler (TTP Labtech Ltd, UK). The plates were sealed and stored at −20° C. until use. On the day of screening, the plates were equilibrated to room temperature (25° C.). Stable GFP-SERCA2a (donor only control) or 2CS cells were lifted from a 225 cm^2 flask by incubating with TrypLE (Invitrogen) for 5 min. Cells were collected and pelleted for 5 min at 500 g and resuspended in 10 mL PBS, then analyzed on a Countess cell counter (Invitrogen) and diluted to 1×10^6 cells/mL. 49 μL Cells were plated on top of the compounds by a FlexDrop IV reagent dispenser (PerkinElmer, Waltham, Mass.). Assay plates were spun for 1 min at 200 g and allowed to incubate at RT for 20 min before reading on a fluorescence lifetime plate reader (constructed in collaboration with Fluorescence Innovations, Inc., Minneapolis, Minn.). GFP fluorescence was excited with a 473 nm microchip laser from Concepts Research Corporation (Belgium, Wis.) and emission was filtered with 490 nm long pass and 520/35 nm band pass filters from Semrock (Rochester, N.Y.).
Time-resolved fluorescence waveforms for each well were fitted to single-exponential decays using global analysis software. Each plate contained 64 control wells with only DMSO, and a hit was defined as a compound that changed the 2CS donor lifetime by more than three times the standard deviation (SD) relative to the controls. Fluorescent compounds that caused the intensity of both untransfected HEK cells and 2CS cells to be more than 3SD outside the mean of the 64 controls on a plate were excluded from the hits as likely false positives.

For data set [2], the target named is T2, SERCA (Sus scrofa, UniProt P11607).
T2 construct: Cardiac sarcoplasmic reticulum (SR) vesicles were prepared from the ventricular tissue of swine hearts; from tissue; host or cells: ventricular tissue of swine hearts (cardiac SR vesicles)
T2 sequence (P11607 1-997 isoform P11607-2): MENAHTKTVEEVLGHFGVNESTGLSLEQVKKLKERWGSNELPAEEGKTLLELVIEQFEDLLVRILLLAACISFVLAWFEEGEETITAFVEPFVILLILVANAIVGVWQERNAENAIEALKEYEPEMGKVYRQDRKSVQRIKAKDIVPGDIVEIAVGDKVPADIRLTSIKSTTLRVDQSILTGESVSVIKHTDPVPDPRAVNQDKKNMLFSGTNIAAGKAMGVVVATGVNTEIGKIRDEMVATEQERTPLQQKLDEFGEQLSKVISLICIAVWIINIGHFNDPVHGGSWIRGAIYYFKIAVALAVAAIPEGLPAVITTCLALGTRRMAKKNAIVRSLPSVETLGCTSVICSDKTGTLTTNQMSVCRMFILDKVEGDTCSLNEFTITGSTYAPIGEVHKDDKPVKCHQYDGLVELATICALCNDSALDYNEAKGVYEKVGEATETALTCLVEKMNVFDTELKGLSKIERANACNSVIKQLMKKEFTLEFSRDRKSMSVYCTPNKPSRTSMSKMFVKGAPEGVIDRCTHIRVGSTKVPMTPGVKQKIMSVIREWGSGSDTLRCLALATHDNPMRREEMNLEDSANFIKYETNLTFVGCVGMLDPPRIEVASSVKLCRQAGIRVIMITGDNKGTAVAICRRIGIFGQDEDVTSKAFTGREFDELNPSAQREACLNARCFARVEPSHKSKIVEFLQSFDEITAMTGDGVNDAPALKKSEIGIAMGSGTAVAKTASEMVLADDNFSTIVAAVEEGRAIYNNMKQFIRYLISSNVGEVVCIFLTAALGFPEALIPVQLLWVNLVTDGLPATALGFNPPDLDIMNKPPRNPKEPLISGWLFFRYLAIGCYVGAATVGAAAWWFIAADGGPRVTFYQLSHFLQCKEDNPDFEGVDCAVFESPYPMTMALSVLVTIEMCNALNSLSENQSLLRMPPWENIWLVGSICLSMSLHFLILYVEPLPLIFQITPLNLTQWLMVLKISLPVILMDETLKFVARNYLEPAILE
As to the kind of experiment: Enzyme-coupled, NADH-linked SERCA ATPase assay in pig cardiac SR. Also noted: inhibition of ATPase activity: dose or concentration left out as unconfirmed. The data set is classed as biochemical. As for the experimental part: An enzyme-coupled, NADH-linked ATPase assay was used to measure SERCA ATPase activity (Stergiopoulos et al., BMC Health Serv Res 2012, 12, 345). in 96-well microplates. Each well contained 50 mM MOPS (pH 7.0), 100 mM KCl, 5 mM MgCl2, 1 mM EGTA, 0.2 mM NADH, 1 mM phosphoenol pyruvate, 10 IU/mL of pyruvate kinase, 10 IU/mL of lactate dehydrogenase, 3.5 μg/mL of the calcium ionophore A23187, and CaCl2 added to set free [Ca^2+] to the desired values. (Mueller et al., Biochemistry 2004, 43, 8754-8765). 2.5 μg of cardiac SR or 25 μg of HEK cell homogenate were used in each well to correct for the difference in SERCA content. The assay was started upon the addition of ATP at a final concentration of 5 mM and read in a SpectraMax Plus microplate spectrophotometer (Molecular Devices, Sunnyvale, Calif.), bring the total volume to 200 μL. Results were normalized to SERCA content determined from immunoblotting.
Effects of known activators and LOPAC hits on SERCA ATPase activity was evaluated in pig cardiac SR. Compounds were dissolved in DMSO, and adjusted to […] the concentrations used in the final assay wells. 4 μL prediluted compounds were added to each well to keep the final [DMSO] at 2% (v/v).

The test system of data set [3] is Plasmodium falciparum. The following applies: cited from earlier work.
The test system of data set [4] is Ca2+ uptake into microsomes. The note with it: cited from earlier work.
In data set [5] the test system is GFP-SERCA2a. The data set is described as follows: Donor-only control: GFP lifetime in GFP-SERCA2a cells. The data set is classed as cell-based, canine. As for the experimental part:
as §1, with “Compounds (1 μL) were transferred from the mother plates into assay plates using a Mosquito HV liquid handler (TTP Labtech Ltd, UK). The plates were sealed and stored at −20° C. until use. On the day of screening, the plates were equilibrated to room temperature (25° C.). Stable GFP-SERCA2a (donor only control) or 2CS cells were lifted from a 225 cm^2 flask by incubating with TrypLE (Invitrogen) for 5 min.” left out, “49 μL Cells were plated on top of the compounds by a FlexDrop IV reagent dispenser (PerkinElmer, Waltham, Mass.).” left out
Time-resolved fluorescence waveforms for each well were fitted to single-exponential decays using global analysis software. […]

As to `Cc1ccc2cccc(NC(=O)c3ccc(OC(C)C)cc3)c2n1` [CDN1163], the “effect on FRET between GFP and RFP in 2CS” value in data set [1] (dose-response, live cells) is given as “reduce FRET”. For the same compound, the “mode of SERCA activation” value in data set [2] is “increasing the activity at saturating [Ca^2+]”.
In the case of `CC(=O)C1=C(O)[C@@H]2[C@H]3c4c[nH]c5cccc(c45)C[C@H]3C(C)(C)N2C1=O` [CPA, cyclopiazonic acid], the negative logarithm of the Kd (pKd) in data set [2] is about 7.40.
For the compound `[Cl-].c1ccc2c(c1)[I+]c1ccccc1-2` [DPI, diphenyline iodonium chloride], the “FRET efficiency at maximal effect” value in data set [1] (basal FRET 0.12) is 0.10. The “LOPAC library screen outcome (2CS GFP lifetime outside 3SD window)” value (from here on “LOPAC library screen outcome”) in data set [1] is on record as “reproducible hits”. For the same compound, the “maximal reduction of FRET” value in data set [1] (maximal effect in dose-response) is listed as about 18%. In addition, in data set [2], the “inhibition of ATPase activity” value is under 50%. For the same compound, the “functional (ATPase) inhibition” value in data set [2] (below 10 μM) is reported as “very little functional inhibition”. Besides, in data set [3], the “IC50 for inhibition of parasite growth” value is “submicromolar”. In addition, the figures for the “inhibition of Ca2+ uptake into microsomes” value in data set [4] (30 µM) and in data set [4] (100 µM) were 18% and 32%, respectively.
On to `C/C=C(/C)C(=O)O[C@H]1C(C)=C2[C@H]([C@@H]1OC(=O)CCCCCCC)[C@@](C)(OC(C)=O)C[C@H](OC(=O)CCC)[C@@]1(O)[C@H]2OC(=O)[C@@]1(C)O` [TG, thapsigargin], for which the “reduction of FRET” value in data set [1] (at 7.5 nM) is given as about 33%. For the same compound, the “LOPAC library screen outcome” value in data set [1] is on record as “reproducible hits”. Further, the ATPase activity result in data set [2] (at 7.5 nM) is “nearly ablated”. Besides, the “effect on ATPase activity at the highest concentrations tested” value in data set [2] was “completely inhibit ATPase activity”.
For the compound `COc1cc(/C=C(\C#N)C(=O)Nc2nnc(C(F)(F)F)s2)ccc1OCc1ccc(C(F)(F)F)cc1C(F)(F)F` [XCT 790], the “reduction of FRET” value in data set [1] (dose-response assay, concentration not given) was about 42%. Also, the “LOPAC library screen outcome” value in data set [1] was “reproducible hits”. Besides, in data set [2], the “effect on ATPase activity at the highest concentrations tested” value was “completely inhibit ATPase activity”. The “effect on the lifetime of GFP-SERCA2a alone” value in data set [5] is listed as “no effect”.
